In patent publication US10111842B2, “Eutectic solvents and uses thereof” (UNIVERSITY OF OSLO, priority 2014, dated 2018):
Read-outs that look alike come from different tables or passages of the source.

Experiments:
[1] = tested on: Enterococcus faecalis (ATCC 19433); test: Bacterial studies, blue light 9.5 J/cm^2 or dark, drop plate CFU (Examples 4-6); type: cell-based
Description: (§1) Briefly, the components were mixed and dissolved in warm water (˜50° C.) before evaporation of the solvent at 45° C. for 15 min with a rotatory evaporator. The resulting NADES were transferred to polypropylene tubes with a tight cap. The individual components of each NADES were also prepared as solutions in MilliQ water in a concentration similar to the concentration in the final NADES preparation. All samples were diluted 1:1 with bacterial suspension (OD600 0.03) or 1:50, 1:100 and 1:200 with phosphate buffered saline (PBS, pH 7.4, Lonza, Verviers, Belgium) prior to dilution 1:1 with the bacterial suspension immediately before the bacterial studies.
(§2) The overnight cultures were centrifuged (4000 g, 22° C., 10 min), the medium replaced and diluted with PBS to OD600 0.03. The bacterial suspensions were mixed 1:1 with the samples described in the previous paragraph. A volume of 200 μl from each sample was transferred to the first and seventh well on each row on a 96 well plate (Nunclon sterile 96 well plate with lid, Thermo Fischer Scientific, Waltham, Mass.). Two identical plates were made each time, one for light treatment and one for dark controls. The plates containing E. faecalis or S. aureus samples were incubated for 10 min (37° C.), irradiated with blue light for 10 min (corresponding to 9.5 J/cm^2±10%) and incubated again for 10 min (37° C.). The plates containing E. coli samples were incubated for 30 min (37° C.), irradiated with blue light for 30 min (corresponding to 27 J/cm^2±10%) and incubated again for 30 min (37° C.). The plates containing the dark controls were treated similarly, but covered with aluminium foil during the irradiation period and placed beside the irradiation chamber. […] After treatment, the samples were diluted according to the 6×6 drop plate procedure, modified to 4×4 (each treatment was performed with four parallels). A volume of 15 μl from each dilution was then plated onto TSB agar plates, left to dry for a few minutes and incubated overnight (37° C.). Viable colony forming units (CFU)/ml were calculated by counting the CFUs, multiplying with the dilution factor and dividing by the application volume.
(§3) Briefly, the components of each NADES (see Table 7) were mixed and dissolved in a round flask with 50 ml of warm water (˜50° C.) before evaporation of the solvent at 45° C. for 15 min with a rotatory evaporator. TMAP (Frontier Scientific, Inc., Logan, Utah, USA) was then added to each NADES. […] The final concentration of TMAP was 1 nM. Samples of TMAP were also prepared in purified water (MilliQ) to be 1 nM after dilution 1:200 with PBS (pH 7.4, Lonza, Verviers, Belgium) or with a 6.8 mM citric acid solution (pH ˜4) and bacterial suspension.
(§4) TCPP (Frontier Scientific, Inc., Logan, Utah, USA) was added to each NADES. […] The final TCPP concentrations were 0.5 nM-1 μM. Samples of TCPP were also prepared in ethanol to be 1 nM-1 μM after dilution 1:200 with PBS (pH 7.4, Lonza, Verviers, Belgium) or with a 6.8 mM citric acid solution (pH ˜4) and bacterial suspension.

[2] = tested on: Staphylococcus aureus (strain Newman); test: as above; type: cell-based; details: for toxicity / eradication of S. aureus: dilution 1:1 with bacterial suspension
Description: as §1, §2, §3, §4

[3] = tested on: Escherichia coli (ATCC 25922); test: Bacterial studies, blue light 27 J/cm^2 or dark, drop plate CFU (Examples 4-6); type: cell-based; details: for surviving colony forming units / surviving colony forming units per ml: E. coli
Description: as §1, §2, §3, §4

[4] = tested on: S. epidermidis (ATCC 35984); test: Phototoxicity studies, blue light 9.5 J/cm^2 or dark (Example 7); type: cell-based, Staphylococcus epidermidis
Description: as §2
(§5) The concentrations were adjusted give a final concentration of 1-20 nM porphyrin in the bacterial suspension after dilution with PBS (see Table 9). Aqueous solutions of 2.7 M citric acid, 2.3 M xylitol, 2.5 M sucrose, 5 M choline chloride and pure NADES, respectively, were used to investigate the toxicity of the individual compounds and NADES without a photosensitiser. The concentrations of the excipients were the same as in the respective NADES after evaporation of unbound water. The solutions were diluted totally 1:200 (or more) in the bacterial studies.
(§6) The treatments were performed with four parallels.
(§7) Gram-positive bacteria are generally considered to be more susceptible to photodynamic therapy than Gram-negative bacteria. Therefore, S. epidermidis was incubated for 10 min (37° C.), irradiated with blue light for 10 min (9.5 J/cm^2) and incubated again for 10 min while K. pneumoniae and P. aeruginosa were incubated for 30 min (37° C.), irradiated with blue light for 30 min (27 J/cm^2) and incubated again for 30 min.

[5] = tested on: K. pneumoniae (ATCC 31844); test: Phototoxicity studies, blue light 27 J/cm^2 or dark (Example 7); type: cell-based, Klebsiella pneumoniae; details: ±SD, n = 4; for % survival (27 J/cm^2): Dilution 1:200, blue light; for % survival (dark): Dilution 1:200, no irradiation
Description: as §2, §5, §6, §7

[6] = tested on: P. aeruginosa (ATCC 9027); test: as above; type: cell-based, Pseudomonas aeruginosa; details: for % survival (27 J/cm^2) / % survival (dark): ±SD, n = 4; for toxicity to P. aeruginosa: individual components of NADES 35, dilution 1:800
Description: as §2, §5, §6, §7

[7] = tested on: C. albicans (ATCC CRM-10231); test: Antifungal toxicity studies, blue light 27 J/cm^2 or dark (Example 8); type: cell-based, Candida albicans
Description: Briefly, the components of each NADES (see Table 13) were mixed and dissolved in a round flask with 50 ml of warm water ( 50° C.) before evaporation of the solvent at 45° C. for 15 min with a rotatory evaporator. The pure […] 35 and NADES 39 were mixed undiluted or after dilution 1:50 with phosphate buffered saline (PBS, Lonza, Verviers, Belgium) with the yeast suspension (1:1) in the toxicity studies. […] The concentrations of the excipients were the same as in the respective NADES after evaporation of unbound water. The solutions were diluted totally 1:1 or 1:100 with PBS and yeast suspension in the toxicity studies. […] The overnight cultures were centrifuged (4000 g, 22° C., 10 min), the medium replaced and diluted with PBS to OD600 0.1.

[8] = Polarity (ENR) testing with Nile red; type: physicochemical; details: Nile red absorption maximum
Description: Polarity (ENR) testing of NADES was performed with Nile red (NR) as a solvatochromatic probe. A small amount of NR was added to each deep eutectic solvent. The recorded absorption maximum (λmax) of NR was applied in the formula ENR (kcal/mol^−1)=hcλmaxNA=28591/λmax where h is Planck's constant, c is the velocity of light and NA is Avogadro's number (Ogihara W, et al., Chem Lett 2004; 33: 1414-1415; Saxena R, et al., Chem Phys Lipids 2014; 183: 1-8).

[9] = Dilution 1:200, blue light, ±SD, n = 4
[10] = Dilution 1:200, no irradiation, ±SD, n = 4
[11] = 2.1 M fructose, […] xylitol, […] sucrose, 5 M choline chloride diluted 1:1 or 1:100, dark or light, p>0.05
[12] = 1 nM TMAP in the citric acid solution, light
[13] = 1 nM TMAP in the diluted NADES 14, light

O=C(O)CC(O)(CC(=O)O)C(=O)O [Citric acid]
toxicity to E. faecalis ([1]; 2.7 M solution, dilution ratios 1:1 up to 1:100): toxic | toxicity to E. faecalis ([1]; dilution 1:200, total treatment 30 min): did not reduce the number of viable colony forming units | toxicity / eradication of S. aureus [2]: complete eradication | toxicity to S. aureus ([2]; dilution 1:100): not toxic anymore | toxicity / eradication of E. coli ([3]; dilution 1:1, with and without blue light): very toxic | phototoxicity to E. coli ([3]; dilution 1:100 (up to 1:100) with PBS, blue light): killed all the bacteria present | % survival (9.5 J/cm^2) [4, 9]: 0.1 ± 0.0% | % survival (dark) [4, 10]: 0.7 ± 0.3% | % survival (27 J/cm^2) [5]: 145 ± 2% | % survival (dark) [5]: 38 ± 18% | % survival (27 J/cm^2) ([6]; Dilution 1:400, blue light): 6 ± 2% | % survival (dark) ([6]; Dilution 1:400, no irradiation): 37 ± 9% | toxicity to P. aeruginosa [6]: not toxic at all | reduction in viable C. albicans after incubation in the dark ([7]; 2.7 M diluted 1:1): slight, though significant, reduction | reduction in viable C. albicans after light treatment ([7]; 2.7 M diluted 1:1, 27 J/cm^2 blue light): 73±8%

OC[C@@H](O)[C@H](O)[C@@H](O)CO [Xylitol]
toxicity of NADES 26 components to E. coli ([3]; choline chloride 5 M, xylitol […]): non-toxic | % survival (9.5 J/cm^2) [4, 9]: 118 ± 12% | % survival (dark) [4, 10]: 98 ± 10% | % survival (27 J/cm^2) [5]: 74 ± 17% | % survival (dark) [5]: 72 ± 19% | % survival (27 J/cm^2) ([6]; Dilution 1:200, blue light): 143 ± 17% | % survival (dark) ([6]; Dilution 1:200, no irradiation): 140 ± 19% | toxicity to P. aeruginosa [6]: not toxic at all | reduction in viable C. albicans [7, 11]: No significant reduction

CO [methanol]
ENR [8]: 51.9 kcal/mol

O [water]
ENR [8]: 48.2 kcal/mol

O=C(O)CC(O)C(=O)O (racemic) [Malic acid, DL-malic acid]
photoinactivation of E. faecalis ([1]; dilution 1:1 and 1:100 with PBS, blue light): complete photoinactivation | toxicity / eradication of S. aureus [2]: toxic | toxicity to S. aureus ([2]; dilution 1:100): not toxic | toxicity to E. coli ([3]; 2.1 M solution, 1:1 dilution and 1:100 dilution): highly toxic

O=C(O)/C=C\C(=O)O [Maleic acid]
eradication of E. faecalis ([1]; dilutions 1:1 to 1:400 with PBS (maleic acid 3.1 M before dilution)): complete eradication | toxicity to S. aureus ([2]; dilution 1:400): no longer toxic | eradication of S. aureus ([2]; dilution ratios 1:1 up to 1:200, total treatment 30 min): complete eradication | toxicity to E. coli ([3]; 3.1 M solution, even at dilution 1:400): highly toxic

tetra-(4-trimethylanilinum)-porphine tetrachloride [TMAP]
increase of phototoxicity compared to the citric acid solution ([1]; 1 nM TMAP in NADES 14 (final dilution 1:400), E. faecalis): 35 times | viable E. coli after photodynamic treatment ([3]; 1 nM TMAP in NADES 35, dilution 1:800 with PBS): no viable | phototoxicity to E. coli ([3]; 1 nM TMAP in PBS, p>0.05): not enough to make this porphyrin significantly phototoxic | phototoxicity to E. coli ([3]; 1 nM TMAP in neutral NADES 26 (1:200), p>0.05): not enough to make this porphyrin significantly phototoxic | phototoxicity to E. coli ([3]; 1 nM TMAP in neutral NADES 39 (1:100), p>0.05): not enough to make this porphyrin significantly phototoxic | surviving colony forming units [3, 12]: 0.2% | surviving colony forming units per ml [3, 12]: 10 000 colony forming units per ml | surviving colony forming units [3, 13]: 0.2% | surviving colony forming units per ml [3, 13]: 10 000 colony forming units per ml | photoinactivation of S. epidermidis [4]: did not result in complete photoinactivation | phototoxicity to P. aeruginosa ([6]; 1 nM or 5 nM TMAP in PBS): not phototoxic | toxicity to C. albicans [7]: not toxic

OC[C@H]1O[C@@](CO)(O[C@H]2O[C@H](CO)[C@@H](O)[C@H](O)[C@H]2O)[C@@H](O)[C@@H]1O [Sucrose]
% survival (9.5 J/cm^2) [4, 9]: 134 ± 14% | % survival (dark) [4, 10]: 113 ± 5% | % survival (27 J/cm^2) [5]: 84 ± 18% | % survival (dark) [5]: 124 ± 9% | % survival (27 J/cm^2) ([6]; Dilution 1:200, blue light): 98 ± 19% | % survival (dark) ([6]; Dilution 1:200, no irradiation): 204 ± 22% | reduction in viable C. albicans [7, 11]: No significant reduction

C[N+](C)(C)CCO.[Cl-] [Choline chloride]
toxicity of individual NADES component to E. faecalis [1]: not toxic | toxicity of NADES 26 components to E. coli [3]: non-toxic | % survival (9.5 J/cm^2) [4]: 124 ± 7% | % survival (dark) [4]: 104 ± 12% | reduction in viable C. albicans [7]: No significant reduction

tetra-(4-carboxyphenyl)-porphine [TCPP]
eradication of E. faecalis after photodynamic treatment ([1]; 1 nM TCPP in acidic NADES 3): almost complete eradication | eradication of E. faecalis after photodynamic treatment ([1]; 1 nM TCPP in acidic NADES 14): almost complete eradication | eradication of E. faecalis after photodynamic treatment ([1]; 1 nM TCPP in acidic NADES 40): almost complete eradication | eradication of E. faecalis after photodynamic treatment ([1]; 1 nM TCPP in citric acid solution): almost complete eradication | phototoxicity to E. faecalis ([1]; 1 nM TCPP in pure PBS): not very phototoxic | eradication of E. faecalis after light treatment ([1]; 1 μM TCPP in neutral NADES 26): complete eradication | surviving colony forming units ([1]; 1 μM TCPP in pure PBS, light, E. faecalis): approximately 300 colony forming units | viable S. aureus after treatment ([2]; 1 nM TCPP in NADES 3, light): no viable bacteria detected | phototoxicity to S. aureus ([2]; 1 nM TCPP in pure PBS): killed half of the viable bacteria | photoinactivation of S. aureus ([2]; TCPP up to 1 μM in PBS): did not result in complete photoinactivation | photoinactivation of S. aureus ([2]; TCPP up to 1 μM in pH-neutral NADES 26): did not result in complete photoinactivation | phototoxicity to E. coli ([3]; 1 nM TCPP): not phototoxic | phototoxicity to E. coli ([3]; 40 nM TCPP in pure PBS): not phototoxic | photoinactivation of E. coli ([3]; 0.6 μM TCPP in NADES 40): complete photoinactivation | surviving colony forming units per ml ([3]; 0.6 μM TCPP in citric acid solution, light): 20 000 colony forming units per ml

O=C(CO)[C@@H](O)[C@H](O)[C@H](O)CO [fructose, D-(−)-fructose]
toxicity of individual NADES component to E. faecalis [1]: not toxic | reduction in viable C. albicans [7, 11]: No significant reduction
